# PubChem BioAssay AID1963850 (Molecular Pharmacology Branch, DTP, NCI, 2024)
# System: 192522-019-R-J2-PDC complex tumor spheroid viability
# Assay: Anticancer human tumor 192522-019-R-J2-PDC patient-derived colon adenocarcinoma cell line growth inhibition [POLQ]
# Conditions: for IC50: curve of first compound; for viability, T/C: stronger effect = lower value
# In short: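 Complex spheroid viability model combining PDC tumour cells with endothelial (HUVEC) and MSC stromal cells. Novobiocin, ART-558 or RP6685 were tested singly and in combination with standard and investigational anticancer drugs. Each was titrated in half-log steps from near clinical Cmax, or from 10 microM where Cmax was unknown.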
# [1] = second compound 0.0316 µM, first compound 0.0316 µM
# [2] = second compound 0.0316 µM, first compound 0.1 µM
# [3] = second compound 0.0316 µM, first compound 0.316 µM
# [4] = second compound 0.0316 µM, first compound 1 µM
# [5] = second compound 0.0316 µM, first compound 3.16 µM
# [6] = second compound 0.0316 µM, first compound 10 µM
# [7] = second compound 0.1 µM, first compound 0.0316 µM
# [8] = second compound 0.1 µM, first compound 0.1 µM
# [9] = second compound 0.1 µM, first compound 0.316 µM
# [10] = second compound 0.1 µM, first compound 1 µM
# [11] = second compound 0.1 µM, first compound 3.16 µM
# [12] = second compound 0.1 µM, first compound 10 µM
# [13] = second compound 0.316 µM, first compound 0.0316 µM
# [14] = second compound 0.316 µM, first compound 0.1 µM
# [15] = second compound 0.316 µM, first compound 0.316 µM
# [16] = second compound 0.316 µM, first compound 1 µM
# [17] = second compound 0.316 µM, first compound 3.16 µM
# [18] = second compound 0.316 µM, first compound 10 µM
# [19] = second compound 1 µM, first compound 0.0316 µM
# [20] = second compound 1 µM, first compound 0.1 µM
# [21] = second compound 1 µM, first compound 0.316 µM
# [22] = second compound 1 µM, first compound 1 µM
# [23] = second compound 1 µM, first compound 3.16 µM
# [24] = second compound 1 µM, first compound 10 µM
# [25] = second compound 3.16 µM, first compound 0.0316 µM
# [26] = second compound 3.16 µM, first compound 0.1 µM
# [27] = second compound 3.16 µM, first compound 0.316 µM
# [28] = second compound 3.16 µM, first compound 1 µM
# [29] = second compound 3.16 µM, first compound 3.16 µM
# [30] = second compound 3.16 µM, first compound 10 µM
# [31] = second compound 10 µM, first compound 0.0316 µM
# [32] = second compound 10 µM, first compound 0.1 µM
# [33] = second compound 10 µM, first compound 0.316 µM
# [34] = second compound 10 µM, first compound 1 µM
# [35] = second compound 10 µM, first compound 3.16 µM
# [36] = second compound 10 µM, first compound 10 µM
# 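Note: spheroids exposed to drugs for seven days before reading.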
# 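Throughout, for viability, T/C: 100% = DMSO vehicle control viability in luminescence.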
structure (smiles),measurement,setting,value
C#Cc1c(F)ccc2cc(O)cc(-c3ncc4c(N5CC6CCC(C5)N6)nc(OCC56CCCN5CC(F)C6)nc4c3F)c12 (stereo unspecified) + Cc1cccc(N(C)C(=O)C2C(O)CCN2c2nc(C)cc(C(F)(F)F)c2C#N)c1,IC50,second compound 0.0316 µM,> 10 µM
same,IC50,second compound 0.1 µM,> 10 µM
same,IC50,second compound 0.316 µM,> 10 µM
same,IC50,second compound 1 µM,> 10 µM
same,IC50,second compound 3.16 µM,> 10 µM
same,IC50,second compound 10 µM,> 10 µM
same,"viability, T/C",[1],102%
same,"viability, T/C",[2],78.8%
same,"viability, T/C",[3],78.5%
same,"viability, T/C",[4],82.1%
same,"viability, T/C",[5],76.5%
same,"viability, T/C",[6],66.5%
same,"viability, T/C",[7],103%
same,"viability, T/C",[8],86.2%
same,"viability, T/C",[9],91.1%
same,"viability, T/C",[10],76%
same,"viability, T/C",[11],73.4%
same,"viability, T/C",[12],70.4%
same,"viability, T/C",[13],95%
same,"viability, T/C",[14],87.8%
same,"viability, T/C",[15],88.3%
same,"viability, T/C",[16],79.4%
same,"viability, T/C",[17],79.3%
same,"viability, T/C",[18],72.8%
same,"viability, T/C",[19],91.8%
same,"viability, T/C",[20],91.4%
same,"viability, T/C",[21],95%
same,"viability, T/C",[22],88.5%
same,"viability, T/C",[23],77.7%
same,"viability, T/C",[24],79.1%
same,"viability, T/C",[25],98.7%
same,"viability, T/C",[26],107%
same,"viability, T/C",[27],94.2%
same,"viability, T/C",[28],83%
same,"viability, T/C",[29],84.5%
same,"viability, T/C",[30],73.3%
same,"viability, T/C",[31],117%
same,"viability, T/C",[32],96.7%
same,"viability, T/C",[33],89.6%
same,"viability, T/C",[34],78.2%
same,"viability, T/C",[35],88.1%
same,"viability, T/C",[36],73.4%
CC1COCCN1c1cc(C2(O)CC3CCC(C2)O3)c2cnn(-c3ccn[nH]3)c2n1 (stereo unspecified) + Cc1cccc(N(C)C(=O)C2C(O)CCN2c2nc(C)cc(C(F)(F)F)c2C#N)c1,IC50,second compound 0.0316 µM,0.252 µM
same,IC50,second compound 0.1 µM,0.256 µM
same,IC50,second compound 0.316 µM,0.298 µM
same,IC50,second compound 1 µM,0.467 µM
same,IC50,second compound 3.16 µM,0.548 µM
same,IC50,second compound 10 µM,0.291 µM
same,"viability, T/C",[1],117%
same,"viability, T/C",[2],70.1%
same,"viability, T/C",[3],47.8%
same,"viability, T/C",[4],29.2%
same,"viability, T/C",[5],43.7%
same,"viability, T/C",[6],46.3%
same,"viability, T/C",[7],95.8%
same,"viability, T/C",[8],73.1%
same,"viability, T/C",[9],42%
same,"viability, T/C",[10],35.9%
same,"viability, T/C",[11],37.3%
same,"viability, T/C",[12],64.2%
same,"viability, T/C",[13],101%
same,"viability, T/C",[14],82.9%
same,"viability, T/C",[15],49.2%
same,"viability, T/C",[16],33.8%
same,"viability, T/C",[17],43.5%
same,"viability, T/C",[18],52.3%
same,"viability, T/C",[19],94.1%
same,"viability, T/C",[20],85.5%
same,"viability, T/C",[21],54.8%
same,"viability, T/C",[22],34.5%
same,"viability, T/C",[23],38.6%
same,"viability, T/C",[24],54.3%
same,"viability, T/C",[25],98.3%
same,"viability, T/C",[26],89.3%
same,"viability, T/C",[27],55.1%
same,"viability, T/C",[28],32.1%
same,"viability, T/C",[29],46.8%
same,"viability, T/C",[30],56.8%
same,"viability, T/C",[31],102%
same,"viability, T/C",[32],78.1%
same,"viability, T/C",[33],48.8%
same,"viability, T/C",[34],32.8%
same,"viability, T/C",[35],51.7%
same,"viability, T/C",[36],50%
CCc1cc2c(N3CCc4c(cc(Cn5ccnc5)cc4-c4cn(C)nc4C(F)(F)F)C3=O)ccnc2c(OC)n1 + Cc1cccc(N(C)C(=O)C2C(O)CCN2c2nc(C)cc(C(F)(F)F)c2C#N)c1,IC50,second compound 0.0316 µM,> 10 µM
same,IC50,second compound 0.1 µM,> 10 µM
same,IC50,second compound 0.316 µM,> 10 µM
same,IC50,second compound 1 µM,> 10 µM
same,IC50,second compound 3.16 µM,> 10 µM
same,IC50,second compound 10 µM,> 10 µM
same,"viability, T/C",[1],107%
same,"viability, T/C",[2],93.3%
same,"viability, T/C",[3],93.9%
same,"viability, T/C",[4],78.7%
same,"viability, T/C",[5],82.3%
same,"viability, T/C",[6],72.7%
same,"viability, T/C",[7],99.6%
same,"viability, T/C",[8],90.7%
same,"viability, T/C",[9],85.4%
same,"viability, T/C",[10],93%
same,"viability, T/C",[11],70.7%
same,"viability, T/C",[12],63.7%
same,"viability, T/C",[13],108%
same,"viability, T/C",[14],92.8%
same,"viability, T/C",[15],89.1%
same,"viability, T/C",[16],88.5%
same,"viability, T/C",[17],85.2%
same,"viability, T/C",[18],72.9%
same,"viability, T/C",[19],108%
same,"viability, T/C",[20],95.9%
same,"viability, T/C",[21],94.6%
same,"viability, T/C",[22],90.1%
same,"viability, T/C",[23],90.2%
same,"viability, T/C",[24],85.3%
same,"viability, T/C",[25],105%
same,"viability, T/C",[26],98%
same,"viability, T/C",[27],96.8%
same,"viability, T/C",[28],91.2%
same,"viability, T/C",[29],91.3%
same,"viability, T/C",[30],82.3%
same,"viability, T/C",[31],104%
same,"viability, T/C",[32],98.9%
same,"viability, T/C",[33],99.2%
same,"viability, T/C",[34],92.4%
same,"viability, T/C",[35],88%
same,"viability, T/C",[36],88.7%
